Experimental findings from patent publication US20200131669A1, “CYCLIC PEPTIDE COMPOUND HAVING HIGH MEMBRANE PERMEABILITY, AND LIBRARY CONTAINING SAME” (Chugai Seiyaku Kabushiki Kaisha, priority 2017, published 2020) are described below.

Starred links: 1 amine or outer side, 2 acyl side, 3 side chain; linkers in the order of their positions; H or OH if unused. Positions of bridges follow the written chain, without caps; N, C: chain ends. Non-standard residues stand in square brackets, D forms with d. Residues, ends and D or L forms follow the SMILES beside them. ξ: configuration not given here. *: point of attachment. X12 = CCCC[C@@H](O)[C@H](N[*:1])C(=O)[*:2]; hPhe(3-Cl) = N[C@@H](CCc1cccc(Cl)c1)C(=O)O; Ethyl(2-morpholino) = C1CN(CC*)CCO1; NMeF = CN[C@@H](Cc1ccccc1)C(=O)O; NMeI = CC[C@H](C)[C@H](NC)C(=O)O; NMeL = CN[C@@H](CC(C)C)C(=O)O; NMeV = CN[C@H](C(=O)O)C(C)C; NMeAbu = CC[C@H](NC)C(=O)O; hSer = N[C@@H](CCO)C(=O)O; NMeA = CN[C@@H](C)C(=O)O; Piperidide = C1CCN(*)CC1; NBuGly = CCCCNCC(=O)O; X11 = FC(F)C(F)(F)C*; Bn = c1ccc(C*)cc1; ξS = NC(CO)C(=O)O; Sar = CNCC(=O)O; tBu = CC(C)(C)*

The test system of the first data set is Caco-2 cells. The data set is described as follows: Caco-2 membrane permeability, improved method as used in the following Examples (96-well, 20 to 24 h preincubation). The conditions noted are these: Papp, Caco-2 membrane permeability, improved method. It counts as in vitro ADME. In outline: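 Papp (cm/sec) was derived from LC/MS of basal samples collected 180 min after apical dosing in FaSSIF/HBSS pH 6.0 with 1% DMSO, against a basal HBSS pH 7.4 receiver containing 4% BSA. Three-week Caco-2 cultures were first preincubated with compound in DMEM+FaSSIF at 37 °C for 20–24 h.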
Background: Passage across Caco-2 layers is used to estimate intestinal permeability.
Take `CCOCC[C@@H]1NC(=O)[C@H](CC(C)C)N(C)C(=O)CN(C)C(=O)[C@H]([C@@H](C)O)NC(=O)[C@H](CC(C)C)N(C)C(=O)[C@H](CC(C)C)NC(=O)[C@H](Cc2ccccc2)N(C)C(=O)[C@@H](CC(C)C)NC(=O)C[C@@H](C(=O)N2CCCCC2)NC(=O)[C@H](CC(C)C)N(C)C(=O)[C@H](Cc2ccccc2)N(C)C1=O` [pd444] ([dL][NMeF]L[NMeL]T[Sar][NMeL][hSer](Et)[NMeF][NMeL]D-Piperidide; lactam N-11): the Caco-2 is 1.1e-06 cm/s.

The data set is the same for the next values; noted with them: human, Caco-2, 180 min.
`CC[C@H](C)[C@@H]1NC(=O)[C@H](Cc2ccccc2)N(C)C(=O)CN(C)C(=O)C[C@@H](C(=O)N2CCCCC2)NC(=O)[C@H](C(C)C)N(C)C(=O)[C@H](CCc2cccc(Cl)c2)NC(=O)[C@H](CC(C)C)N(C)C(=O)[C@H](CC(C)C)N(C)C(=O)CN(C)C(=O)[C@H]([C@@H](C)O)NC(=O)[C@H](CC(C)C)N(C)C1=O` [pd358] ([Sar][NMeF]I[NMeL]T[Sar][NMeL][NMeL][hPhe(3-Cl)][NMeV]D-Piperidide; lactam N-11) had a Caco-2 of 1.1e-06 cm/s.
For the molecule `CCCCN1CC(=O)N(C)[C@@H](Cc2ccccc2)C(=O)N(C)[C@@H](CC(C)C)C(=O)N[C@@H](CC(C)C)C(=O)N(C)[C@@H](CC(C)C)C(=O)N[C@H](C(=O)N2CCCCC2)CC(=O)N(C)CC(=O)N(C)[C@@H](CC)C(=O)N[C@@H](C(C)C)C(=O)N(C)[C@@H](CC(C)C)C(=O)N[C@@H](COCCN2CCOCC2)C1=O` [pd486] ([Sar][NMeAbu]V[NMeL]S(Ethyl(2-morpholino))[NBuGly][NMeF][NMeL]L[NMeL]D-Piperidide; lactam N-11), the Caco-2 is 1.1e-06 cm/s.
Regarding `CC[C@H](C)[C@@H]1NC(=O)[C@H](Cc2ccccc2)N(C)C(=O)CN(C)C(=O)C[C@@H](C(=O)N2CCCCC2)NC(=O)[C@H]([C@@H](C)CC)N(C)C(=O)C(COCc2ccccc2)NC(=O)[C@H](CC(C)C)N(C)C(=O)[C@H](Cc2ccccc2)N(C)C(=O)CN(C)C(=O)[C@H]([C@@H](C)O)NC(=O)[C@H](CC(C)C)N(C)C1=O` (stereo partly drawn) [pd178] ([Sar][NMeF]I[NMeL]T[Sar][NMeF][NMeL][ξS](Bn)[NMeI]D-Piperidide; lactam N-11), the “Caco-2” value is 2.5e-06 cm/s.
Turning to `CCCC[C@@H](O)[C@@H]1NC(=O)[C@H](CC(C)C)N(C)C(=O)[C@H](CC(C)C)NC(=O)[C@H](Cc2ccccc2)N(C)C(=O)[C@@H](C)NC(=O)C[C@@H](C(=O)N2CCCCC2)NC(=O)[C@H](C)N(C)C(=O)[C@H](Cc2ccccc2)N(C)C(=O)[C@H](COC(C)(C)C)NC(=O)[C@H](CC(C)C)N(C)C(=O)CN(C)C1=O` [pd466] ([dA][NMeF]L[NMeL][X12][Sar][NMeL]S(tBu)[NMeF][NMeA]D-Piperidide; lactam N-11), the Caco-2 came out at 1.1e-06 cm/s.
On to `CC(C)C[C@H]1C(=O)N[C@@H](COC(C)(C)C)C(=O)N(C)[C@@H](Cc2ccccc2)C(=O)N(C)[C@@H](C(C)C)C(=O)N[C@H](C(=O)N2CCCCC2)CC(=O)N[C@H](C)C(=O)N(C)[C@@H](Cc2ccccc2)C(=O)NC(COc2cccc(Cl)c2)C(=O)N(C)[C@@H](C(C)C)C(=O)N[C@@H]([C@@H](C)O)C(=O)N(C)CC(=O)N1C` (stereo partly shown) [pd185], for which the “Caco-2” value came to 2.2e-06 cm/s.
The molecule `CC[C@H](C)[C@H]1C(=O)N[C@@H]([C@@H](C)O)C(=O)N(C)CC(=O)N(C)[C@@H](CC(C)C)C(=O)N[C@H](C(=O)N2CCCCC2)CC(=O)N(C)[C@@H](C)C(=O)N[C@@H](CC(C)C)C(=O)N(C)[C@@H](CC(C)C)C(=O)N(C)[C@@H](Cc2ccccc2)C(=O)N[C@@H](COCC(F)(F)C(F)F)C(=O)N(C)[C@@H](Cc2ccccc2)C(=O)N1C` [pd348] ([NMeA]L[NMeL][NMeF]S(X11)[NMeF][NMeI]T[Sar][NMeL]D-Piperidide; lactam N-11) returned a Caco-2 of 1.1e-06 cm/s.
